Laboratory results from patent US11260050B2, “Combination of cotinine plus antioxidant for treatment-resistant depression and correction of astrocytes functional deficit induced by depression and other neuropathological” (UNIVERSIDAD SAN SEBASTIAN, priority 2017, dated 2022).

Key:
restrained mice = experiment: Novel object recognition after chronic restraint stress (Example 2); assay type: in vivo, C57BL/6 male mice; conditions: stressed mice, IN cotinine vs vehicle
Experimental: Mice between 2-3 months of age after one week of acclimatization were randomly divided into two groups. Stressed mice were subjected to restraint stress. Control (non-restrained) mice were allowed to move freely during this period. After the stress exposure period, mice were divided into three experimental groups: 1) Non-restrained mice treated with vehicle (PBS, pH 7.4) serving as unstressed controls (n=8); 2) Restrained mice (RS) treated with vehicle (n=8); 3), RS mice treated with 24 μl of a cotinine solution (10 mg/ml in PBS, pH 7.4) via intranasal route of administration (n=6). Treatments were administered daily until euthanasia. After two weeks of treatments mice were behaviorally tested and euthanized (FIG. 10)
Intranasal delivery was performed as previously described (Hanson and Frey, 2007). Mice at 2-3 months of age were hand-restrained, positioned in a supine position, and administered two 12 μl drops of cotinine solution (10 mg/ml in PBS), or PBS alone, into both nares. Mice were given an extra 12 μl treatment drop if the mouse expelled out the solution. Mice were kept in the supine posture for 5 seconds after delivery to facilitate the delivery. […]
The NOR test starts with a habituation step that consists in putting each mouse to freely explore an open and empty testing arena (40 cm×40 cm×35 cm) for 10 min. […] The time exploring the objects was recorded during 5 min in both steps. […]

[1] = test system: mice subjected to restraint stress; experiment: Porsolt test after restraint stress, intranasal post-treatment (Example 1, Experiment 1); assay type: in vivo, C57BL/6 mice; conditions: RS mice post-treated with cotinine via IN; p<0.01
Experimental: Mice were treated immediately after the 21 days of immobilization stress (6 h/day) until euthanasia. Mice (n=5-8/condition) received daily treatments with 1. PBS (phosphate buffer saline, pH 7.4) via intranasal (2×12 μl/nostril), 2. PBS via gavage (50 μl); 3. Cotinine dissolved in PBS via oral (gavage, (0.5 mg/kg; Cot 0.5); 4. Cotinine dissolved in PBS via intranasal (Cot IN, 10 mg/ml, 2×12 μl/nostril).
To induce chronic stress, the restraint stress paradigm was used as previously described. Mice are immobilized in 50 ml falcon plastic tubes that were attached to mouse cages. The immobilization proceeded during 6 h from 9:00 AM to 3:00 PM in absence of treatments. Tubes have holes in the opposite side of the tube to allow the animal breathing and urination. Mice were almost completely immobilized for 6 h/day for 21 days after which they were permitted freely to move, eat and drink.
This test is used to measure the antidepressant effects of drugs, and consists in placing each mouse in a transparent cylinder filled with water at room temperature (RT). After a brief period of strong activity, rodents adopt a characteristic immobile posture. The time mice spent immobile is a measure of depressive-like behavior. The immobility time will be recorded during a 15-min and a next day 5-min trial. The time spent by each mouse immobile will be recorded.

[2] = test system: mice subjected to fear conditioning; experiment: Porsolt test after fear conditioning (Example 1, Experiment 3); assay type: in vivo, C57BL/6 mice; conditions: FC mice, IN post-treatment; cotinine p<0.01, combination p<0.05
Experimental: (§1) Mice were treated via IN 2 hours after fear conditioning and continuously until euthanasia.
(§2) Mice (n=5-6/condition) received daily treatments with 1. PBS (phosphate buffer saline, pH 7.4) via intranasal (2×12 μl/nostril), 2. Cotinine dissolved in PBS via intranasal (Cot IN, 10 mg/ml, 2×12 μl/nostril); 3. Cotinine+krill oil both dissolved in PBS via intranasal (Cot IN, 10 mg/ml+KO, 48 mg/ml, 2×12 μl/nostril).
Contextual FC was performed as described. The conditioning chamber used is surrounded by a sound-attenuating box with a camera connected to freeze frame software (MED Associates Inc.), also equipped to provide a background white noise (72 dB). The conditioning chamber (33 cm×20 cm×22 cm) contains in one side a speaker and in the opposite slide has a 24V light. The chamber has a 36-bar insulated shock grid floor. […] Freezing behavior that is defined as the absence of all movement except the one needed for breathing was assessed using the FreezeView Software (MED Associates Inc.).
This test is used to measure the antidepressant effects of drugs, and consists in placing each mouse in a transparent cylinder filled with water at room temperature (RT). […] The immobility time will be recorded during a 15-min and a next day 5-min trial. The time spent by each mouse immobile will be recorded.

[3] = test system: mice subjected to fear conditioning; experiment: Elevated plus maze after fear conditioning (Example 1, Experiment 3); assay type: in vivo, C57BL/6 mice; conditions: FC mice, IN post-treatment; Veh 68.14±5.573, N=5
Experimental: as §1, §2
Contextual FC was performed as described. The conditioning chamber used is surrounded by a sound-attenuating box with a camera connected to freeze frame software (MED Associates Inc.), also equipped to provide a background white noise (72 dB). The conditioning chamber (33 cm×20 cm×22 cm) contains in one side a speaker and in the opposite slide has a 24V light. The chamber has a 36-bar insulated shock grid floor. Mice were placed in the conditioning chamber for 2 min before the onset of a discrete tone (a sound that will last 30 seconds (sec) at 2,800 Hz and 85 dB). In the last two seconds of this tone, mice received a foot shock of 1 mA and kept in the conditioning chamber for 2 min and then returned to their cages. Between trials, the chamber was sanitized with 70% ethanol and dried. Freezing behavior that is defined as the absence of all movement except the one needed for breathing was assessed using the FreezeView Software (MED Associates Inc.). […]

CN1C(=O)CC[C@H]1c1cccnc1 [Cotinine, (5S)-1-methyl-5-(3-pyridyl) pyrrolidin-2-one]
exploration index for the new object (NOR) (restrained mice): increase in the exploration index when compared to vehicle-treated stressed mice but the difference did not reach statistical significance | number of entries to the novel object area (NOR) (restrained mice; p<0.05): significantly higher number of entries to the novel object area | depressive-like behavior (freezing/immobility) in the Porsolt test [1]: significant decrease in depressive-like behavior | depressive-like behavior (freezing) in the Porsolt test [2]: significant decrease in depressive-like behavior | time spent in the open arms (EPM) [3]: increase in the time spent in the open arms but the difference did not reached significance
